Measurements from ChEMBL document CHEMBL3991601, “The target landscape of clinical kinase drugs” (Science, 2017).
Activity calls are given as the source filed them.

Tests used:
[1] = molecular target: T1, Very long-chain specific acyl-CoA dehydrogenase, mitochondrial (Homo sapiens, UniProt P49748)
T1 sequence (P49748 whole entry): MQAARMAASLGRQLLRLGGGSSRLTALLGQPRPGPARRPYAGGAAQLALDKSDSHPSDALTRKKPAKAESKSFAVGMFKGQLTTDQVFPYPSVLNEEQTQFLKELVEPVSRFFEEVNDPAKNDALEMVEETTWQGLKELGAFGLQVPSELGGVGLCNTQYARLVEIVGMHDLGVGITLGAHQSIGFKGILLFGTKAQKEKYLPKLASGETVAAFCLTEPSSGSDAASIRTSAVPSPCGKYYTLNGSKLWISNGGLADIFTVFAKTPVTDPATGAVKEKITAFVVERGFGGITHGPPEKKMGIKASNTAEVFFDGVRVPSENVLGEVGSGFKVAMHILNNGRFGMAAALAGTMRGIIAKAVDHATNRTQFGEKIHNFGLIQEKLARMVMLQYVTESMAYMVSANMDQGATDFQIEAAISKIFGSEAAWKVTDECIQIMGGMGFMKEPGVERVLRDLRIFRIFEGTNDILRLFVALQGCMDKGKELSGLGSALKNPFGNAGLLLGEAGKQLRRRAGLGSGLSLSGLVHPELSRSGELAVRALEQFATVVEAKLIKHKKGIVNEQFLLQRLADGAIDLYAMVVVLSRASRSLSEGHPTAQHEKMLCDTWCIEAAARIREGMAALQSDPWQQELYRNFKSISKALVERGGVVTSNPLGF

[2] = molecular target: Cyclin-dependent kinase 7 (Homo sapiens, UniProt P50613)
[3] = molecular target: T2, Discoidin domain-containing receptor 2 (Homo sapiens, UniProt Q16832)
T2 sequence (Q16832 whole entry): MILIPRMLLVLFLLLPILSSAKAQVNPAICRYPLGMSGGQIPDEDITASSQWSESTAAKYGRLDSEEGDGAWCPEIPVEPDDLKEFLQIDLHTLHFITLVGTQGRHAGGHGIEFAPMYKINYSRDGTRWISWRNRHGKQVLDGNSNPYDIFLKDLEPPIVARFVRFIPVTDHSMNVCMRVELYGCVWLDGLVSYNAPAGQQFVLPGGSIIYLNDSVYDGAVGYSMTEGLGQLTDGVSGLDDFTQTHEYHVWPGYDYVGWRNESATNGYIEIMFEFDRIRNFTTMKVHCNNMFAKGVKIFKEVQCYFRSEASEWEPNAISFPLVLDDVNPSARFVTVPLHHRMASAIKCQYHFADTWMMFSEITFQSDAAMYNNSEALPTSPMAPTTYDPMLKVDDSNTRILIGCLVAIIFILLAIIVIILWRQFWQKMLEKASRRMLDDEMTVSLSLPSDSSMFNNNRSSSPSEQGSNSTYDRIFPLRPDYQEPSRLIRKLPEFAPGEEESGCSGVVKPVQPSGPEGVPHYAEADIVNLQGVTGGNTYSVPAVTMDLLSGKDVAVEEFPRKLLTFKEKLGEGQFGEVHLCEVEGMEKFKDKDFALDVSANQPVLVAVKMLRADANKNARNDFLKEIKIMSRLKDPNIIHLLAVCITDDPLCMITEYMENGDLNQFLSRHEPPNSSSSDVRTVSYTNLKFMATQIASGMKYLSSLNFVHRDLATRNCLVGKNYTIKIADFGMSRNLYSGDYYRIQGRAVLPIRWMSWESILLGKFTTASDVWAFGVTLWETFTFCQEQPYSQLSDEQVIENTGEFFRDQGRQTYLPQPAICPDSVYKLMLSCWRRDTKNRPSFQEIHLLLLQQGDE

[4] = molecular target: T3, Electron transfer flavoprotein subunit beta (Homo sapiens, UniProt P38117)
T3 sequence (P38117 whole entry): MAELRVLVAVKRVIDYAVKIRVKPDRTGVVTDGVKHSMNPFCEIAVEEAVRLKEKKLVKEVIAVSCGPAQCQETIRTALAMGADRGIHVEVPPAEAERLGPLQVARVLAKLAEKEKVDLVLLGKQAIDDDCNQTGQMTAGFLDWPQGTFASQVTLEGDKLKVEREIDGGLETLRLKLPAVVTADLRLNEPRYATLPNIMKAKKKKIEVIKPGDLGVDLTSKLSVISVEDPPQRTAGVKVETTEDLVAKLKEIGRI

[5] = molecular target: Dual specificity mitogen-activated protein kinase kinase 2 (Homo sapiens, UniProt P36507)
[6] = molecular target: T4, Dynamin-like GTPase OPA1, mitochondrial (Homo sapiens, UniProt O60313)
T4 sequence (O60313 whole entry): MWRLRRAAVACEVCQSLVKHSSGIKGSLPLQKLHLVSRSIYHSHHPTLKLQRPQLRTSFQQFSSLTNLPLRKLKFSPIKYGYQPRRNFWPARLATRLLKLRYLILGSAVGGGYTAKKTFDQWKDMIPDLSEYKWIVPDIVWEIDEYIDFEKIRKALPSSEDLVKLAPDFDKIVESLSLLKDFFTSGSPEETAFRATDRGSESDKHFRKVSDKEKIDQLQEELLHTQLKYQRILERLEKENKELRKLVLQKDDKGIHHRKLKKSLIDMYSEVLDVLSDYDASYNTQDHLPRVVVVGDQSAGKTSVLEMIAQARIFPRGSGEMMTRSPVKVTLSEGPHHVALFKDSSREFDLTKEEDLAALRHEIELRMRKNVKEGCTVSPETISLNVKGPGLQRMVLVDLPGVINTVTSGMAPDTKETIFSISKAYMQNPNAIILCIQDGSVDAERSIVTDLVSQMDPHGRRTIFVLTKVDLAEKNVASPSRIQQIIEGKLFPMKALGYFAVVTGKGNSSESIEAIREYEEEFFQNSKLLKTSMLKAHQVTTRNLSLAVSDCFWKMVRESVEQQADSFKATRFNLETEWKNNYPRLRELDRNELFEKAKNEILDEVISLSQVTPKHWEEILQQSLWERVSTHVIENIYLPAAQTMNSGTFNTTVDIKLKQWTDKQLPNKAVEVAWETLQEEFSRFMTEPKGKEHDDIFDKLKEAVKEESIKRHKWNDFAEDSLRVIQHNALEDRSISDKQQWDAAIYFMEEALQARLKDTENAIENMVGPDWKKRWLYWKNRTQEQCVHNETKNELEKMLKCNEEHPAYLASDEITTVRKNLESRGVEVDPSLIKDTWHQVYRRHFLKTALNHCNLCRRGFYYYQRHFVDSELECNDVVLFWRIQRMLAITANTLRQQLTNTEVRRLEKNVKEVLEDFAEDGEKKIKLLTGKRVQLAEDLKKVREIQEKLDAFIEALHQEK

[7] = molecular target: Elongation factor Tu, mitochondrial (Homo sapiens, UniProt P49411)
Also: in the data inactive means no Kd found up to 30 µM.

Chain of Dual specificity mitogen-activated protein kinase kinase 2 (P36507 whole entry): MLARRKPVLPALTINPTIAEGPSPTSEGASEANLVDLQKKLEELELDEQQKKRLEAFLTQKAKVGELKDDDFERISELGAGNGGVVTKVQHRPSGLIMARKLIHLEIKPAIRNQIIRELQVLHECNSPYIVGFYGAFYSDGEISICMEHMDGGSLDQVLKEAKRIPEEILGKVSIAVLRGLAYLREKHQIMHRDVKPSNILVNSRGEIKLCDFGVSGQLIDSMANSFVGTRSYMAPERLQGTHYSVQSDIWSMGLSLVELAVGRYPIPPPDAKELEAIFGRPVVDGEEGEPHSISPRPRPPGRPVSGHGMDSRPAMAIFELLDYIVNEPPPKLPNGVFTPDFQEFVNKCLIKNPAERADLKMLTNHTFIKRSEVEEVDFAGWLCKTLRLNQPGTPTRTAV
Chain of Cyclin-dependent kinase 7 (P50613 whole entry, the tested form may be a part): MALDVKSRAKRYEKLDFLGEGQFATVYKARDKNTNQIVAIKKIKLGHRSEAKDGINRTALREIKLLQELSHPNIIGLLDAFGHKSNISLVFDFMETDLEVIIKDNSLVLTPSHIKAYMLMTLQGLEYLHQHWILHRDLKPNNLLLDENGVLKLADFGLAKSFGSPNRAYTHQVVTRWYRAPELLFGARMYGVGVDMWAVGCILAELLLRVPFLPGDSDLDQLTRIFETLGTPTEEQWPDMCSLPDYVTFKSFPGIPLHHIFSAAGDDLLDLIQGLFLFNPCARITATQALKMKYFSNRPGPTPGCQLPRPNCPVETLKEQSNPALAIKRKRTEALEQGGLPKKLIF

Structure (SMILES)	Kd [1]	Kd [2]	Kd [3]	Kd [4]	Kd [5]	Kd [6]	Kd [7]
COc1cc(F)c(F)c(Nc2ccc(I)cc2F)c1NS(=O)(=O)C1(C[C@H](O)CO)CC1 [REFAMETINIB]	> 30 µM (inactive)	> 30 µM (inactive)	> 30 µM (inactive)	> 30 µM (inactive)	0.176 µM (active)	> 30 µM (inactive)	> 30 µM (inactive)
CCc1nc(C(N)=O)c(Nc2ccc(N3CCC(N4CCN(C)CC4)CC3)c(OC)c2)nc1NC1CCOCC1 [GILTERITINIB]	> 30 µM (inactive)	> 30 µM (inactive)	> 30 µM (inactive)	> 30 µM (inactive)	0.502 µM (active)	> 30 µM (inactive)	0.464 µM
C#Cc1cccc(Nc2ncnc3cc4c(cc23)OCCOCCOCCO4)c1 [ICOTINIB]	> 30 µM (inactive)	> 30 µM (inactive)	> 30 µM (inactive)	> 30 µM (inactive)	> 30 µM (inactive)	> 30 µM (inactive)	> 30 µM (inactive)
COc1cc2ncnc(Nc3ccc(O)cc3)c2cc1OC [WHI-P131]	> 30 µM (inactive)	> 30 µM (inactive)	> 30 µM (inactive)	> 30 µM (inactive)	> 30 µM (inactive)	> 30 µM (inactive)	> 30 µM (inactive)
C=CC(=O)Nc1cc(Nc2nccc(-c3cn(C)c4ccccc34)n2)c(OC)cc1N(C)CCN(C)C [OSIMERTINIB]	> 30 µM (inactive)	> 30 µM (inactive)	> 30 µM (inactive)	> 30 µM (inactive)	> 30 µM (inactive)	> 30 µM (inactive)	> 30 µM (inactive)
COc1ccc2c(OCc3nnc4ccc(-c5ccccc5)nn34)ccnc2c1 [AMG-208]	> 30 µM (inactive)	> 30 µM (inactive)	> 30 µM (inactive)	> 30 µM (inactive)	> 30 µM (inactive)	> 30 µM (inactive)	> 30 µM (inactive)
COc1cccc2cc(-c3nc([C@H]4CC[C@H](C(=O)O)CC4)n4ncnc(N)c34)[nH]c12 [OSI-027]	> 30 µM (inactive)	> 30 µM (inactive)	> 30 µM (inactive)	> 30 µM (inactive)	> 30 µM (inactive)	> 30 µM (inactive)	> 30 µM (inactive)
O=C(NC[C@H](O)CO)c1ccncc1Nc1ccc(I)cc1F [PIMASERTIB]	> 30 µM (inactive)	> 30 µM (inactive)	> 30 µM (inactive)	> 30 µM (inactive)	0.038 µM (active)	> 30 µM (inactive)	> 30 µM (inactive)
COc1ccc(-c2ccc3ncc4c(c3c2)n(-c2ccc(N3CCNCC3)c(C(F)(F)F)c2)c(=O)n4C)cn1 [BGT-226 FREE BASE]	> 30 µM (inactive)	> 30 µM (inactive)	> 30 µM (inactive)	> 30 µM (inactive)	> 30 µM (inactive)	> 30 µM (inactive)	> 30 µM (inactive)
